Assay results from US6444615B1, “Herbicidal imidazolidinetrione and thioxo-imidazolidinediones” (Dow AgroSciences LLC, priority 2000, dated 2002).

Key:
Format in all cases: in vivo
Details in all cases: 1200 g/ha, scale of 0-100, 0 no activity, 100 total control, about two or four weeks after application
[1] = system: Barnyardgrass (Echinochloa crusgalli); experiment: Herbicidal post-emergence test, Barnyardgrass
Procedure: (§1) Listed below, a typical planting design for the test, consisting of four monocot weeds, four dicot weeds and one sedge weed. [table] For each compound, evaluation tests were carried out according to the following procedures: For preemergence tests, immediately after planting, the test compound was sprayed directly onto the soil surface. The flats or pots were placed in the greenhouse and then watered. For postemergence tests, seeds were allowed to germinate and grow for 10 to 21 days before application. The test plants were selected for uniformity, size and stage of development. The test plants were then treated with the test compound, returned to the greenhouse and watered. Untreated plants were used as a comparison. The compound to be evaluated was dissolved in an appropriate solvent, usually acetone, or a formulation of the evaluated compounds as described above, was added to the water, and sprayed over the flats or pots using a carrier volume equivalent to 187 or 468 liters per hectare to give a rate of application in grams per hectare (g/ha). About two or four weeks after application of the test compounds, the state of the plant was observed. Each species was evaluated on a scale of 0-100 in which 0 equals no activity and 100 equals total control.

[2] = system: Foxtail, (green) (Setaria viridis); experiment: Herbicidal post-emergence test, Foxtail (green)
Procedure: as §1

[3] = system: Crabgrass (large) (Digitaria sanguinalis); experiment: Herbicidal pre-emergence test, Crabgrass (large)
Procedure: as §1

[4] = system: Smartweed, (pale) (Polygonum lapathifolium); experiment: Herbicidal pre-emergence test, Smartweed (pale)
Procedure: as §1

[5] = system: Barnyardgrass (Echinochloa crusgalli); experiment: Herbicidal pre-emergence test, Barnyardgrass
Procedure: as §1

[6] = system: Nightshade, (black) (Solanum nigrum); experiment: Herbicidal post-emergence test, Nightshade (black)
Procedure: as §1

[7] = system: Velvetleaf (Abutilon theophrasti); experiment: Herbicidal pre-emergence test, Velvetleaf
Procedure: as §1

[8] = system: Perennial Ryegrass (Lolium perenne); experiment: Herbicidal pre-emergence test, Perennial Ryegrass
Procedure: as §1

[9] = system: Nightshade, (black) (Solanum nigrum); experiment: Herbicidal pre-emergence test, Nightshade (black)
Procedure: as §1

[10] = system: Velvetleaf (Abutilon theophrasti); experiment: Herbicidal post-emergence test, Velvetleaf
Procedure: as §1

[11] = system: Nutsedge, (yellow) (Cyperus esculentus); experiment: Herbicidal pre-emergence test, Nutsedge (yellow)
Procedure: as §1

[12] = system: Crabgrass (large) (Digitaria sanguinalis); experiment: Herbicidal post-emergence test, Crabgrass (large)
Procedure: as §1

[13] = system: Foxtail, (green) (Setaria viridis); experiment: Herbicidal pre-emergence test, Foxtail (green)
Procedure: as §1

[14] = system: Perennial Ryegrass (Lolium perenne); experiment: Herbicidal post-emergence test, Perennial Ryegrass
Procedure: as §1

[15] = system: Nutsedge, (yellow) (Cyperus esculentus); experiment: Herbicidal post-emergence test, Nutsedge (yellow)
Procedure: as §1

[16] = system: Hairy Beggarticks (Bidens pilosa); experiment: Herbicidal pre-emergence test, Hairy Beggarticks
Procedure: as §1

[17] = system: Smartweed, (pale) (Polygonum lapathifolium); experiment: Herbicidal post-emergence test, Smartweed (pale)
Procedure: as §1

[18] = system: Hairy Beggarticks (Bidens pilosa); experiment: Herbicidal post-emergence test, Hairy Beggarticks
Procedure: as §1

| Structure (SMILES) | Herbicidal Activity BYG (post-emergence) [1] | Herbicidal Activity FOX (post-emergence) [2] | Herbicidal Activity CRB (pre-emergence) [3] | Herbicidal Activity SMT (pre-emergence) [4] | Herbicidal Activity BYG (pre-emergence) [5] | Herbicidal Activity NS (post-emergence) [6] | Herbicidal Activity VEL (pre-emergence) [7] | Herbicidal Activity RYE (pre-emergence) [8] | Herbicidal Activity NS (pre-emergence) [9] | Herbicidal Activity VEL (post-emergence) [10] | Herbicidal Activity NUT (pre-emergence) [11] | Herbicidal Activity CRB (post-emergence) [12] | Herbicidal Activity FOX (pre-emergence) [13] | Herbicidal Activity RYE (post-emergence) [14] | Herbicidal Activity NUT (post-emergence) [15] | Herbicidal Activity BID (pre-emergence) [16] | Herbicidal Activity SMT (post-emergence) [17] | Herbicidal Activity BID (post-emergence) [18] |
| --- | --- | --- | --- | --- | --- | --- | --- | --- | --- | --- | --- | --- | --- | --- | --- | --- | --- | --- |
| C#CCOc1cc(N2C(=O)C(=O)N(CCCC)C2=O)c(F)cc1Cl [Compound 14] | 30 | 40 | 0/0 | 0 | 0 | 100 | 0 | 0/0 | 0 | 100 | 0/0 | 0/0 | 0 | 0/0 | 0/0 | 0 | 60 | 95 |
| C=CCOc1cc(N2C(=O)C(=O)N(C)C2=O)c(F)cc1Cl [Compound 15] | 30 | 30 | 0 | 0 | 0 | 85 | 0 | 0/0 | 0 | 90 | 0/0 | 30 | 0 | 0/0 | 0/0 | 0 | 80 | 85 |
| C=CCOc1cc(N2C(=O)C(=O)N(CCCC)C2=O)c(F)cc1Cl [Compound 16] | 0/0 | 60 | 0/0 | 0 | 0/0 | 100 | 0 | 0/0 | 0 | 100 | 0/0 | 0/0 | 0 | 0/0 | 0/0 | 0 | 80 | 95 |
| CCOC(=O)COc1cc(N2C(=O)C(=O)N(C)C2=O)c(F)cc1Cl [Compound 17] | 0/0 | 0/0 | 0/0 | 30 | 0/0 | 0 | 0/0 | 30 | 30 | 0/0 | 0/0 | 0/0 | 0/0 | 0 | 0/0 | 0/0 | 0 | 0/0 |
| COC(=O)c1cc(N2C(=O)C(=O)N(C(C)C)C2=O)c(F)cc1Cl [Compound 18, 1-(2-fluoro-4-chloro-5-methoxycarbonylphenyl)-3-isopropyl-2,4,5-imidazolidinetrione] | 40 | 60 | 0 | 40 | 0 | 95 | 0 | 0/0 | 100 | 95 | 0/0 | 30 | 0 | 0/0 | 0/0 | 100/100 | 95 | 100/100 |
| C#CCN1C(=O)COc2cc(F)c(N3C(=O)C(=O)N(C)C3=O)cc21 [Compound 22] | 60 | 80 | 100 | 85 | 40 | 100 | 40 | 0 | 95 | 100 | 0 | 40 | 100 | 30 | 60 | 95 | 90 | 80 |
| C#CCN1C(=O)COc2cc(F)c(N3C(=O)C(=O)N(CCC)C3=O)cc21 [Compound 23, 1-n-propyl-3-[7-fluoro-4-(2-propynyl)-2ZH-1,4-benzoxazin-3(4H)-one-6-]-2,4,5-imidazlidinetrione] | 60 | 60 | 100 | 100 | 100 | 100/100 | 100/100 | 90 | 100/100 | 100/100 | 95 | 0 | 100 | 0 | 40 | 100 | 95 | 95 |
